Laboratory results as given in ChEMBL document CHEMBL1127069 (J Med Chem, 1993).

How the values were obtained:
Format in all cases: functional
Vanilloid receptor = Vanilloid receptor (Rattus norvegicus, UniProt Q9ERZ8+Q9WUD2+O35433); assay: Effective concentration for [Ca2+] uptake into dorsal root ganglia neurones in rat cultured spinal sensory neurones
Mus musculus = assay: In vivo analgesic dose in mouse tail flick latency model
Cavia porcellus = species: Cavia porcellus; assay: In vitro effective dose for contraction of guinea pig ileum

Row | SMILES | EC50 (Vanilloid receptor) [nM] | ED50 (Mus musculus) [µmol/kg] | EC50 (Cavia porcellus) [nM]
1 | CCCCCCCCSC(=O)Cc1ccc(O)c(OC)c1 | 1170 | – | –
2 | CCCCCCCCNC(=O)/C=C/c1ccc(O)c(OC)c1 | > 100000 | – | –
3 | CCCCCCCCC(=O)CCc1ccc(O)c(OC)c1 | 2130 | – | –
4 | CCCCCCCCN(C)/C(S)=N/Cc1ccc(O)c(OC)c1 | 530 | – | –
5 | CCCCCCCC/N=C(\S)NCc1ccc(O)c(OC)c1 | – | 3.2 | –
6 | CCCCCCCCC(=O)Nc1ccc(O)c(OC)c1 | 4480 | > 50 | 1170
7 | CCCCCCCCOC(=O)Cc1ccc(O)c(OC)c1 | 670 | – | –
8 | CCCCCCCCS(=O)(=O)NCc1ccc(O)c(OC)c1 | 1320 | > 50 | 2900
9 | CCCCCCCC/C(S)=N\Cc1ccc(O)c(OC)c1 | 280 | 38 | 1230
10 | CCCCCCCCNC(=O)Cc1ccc(O)c(OC)c1 | 300 | 9.2 | –
11 | CCCCCCCC/N=C(/S)Nc1ccc(O)c(OC)c1 | 2570 | > 50 | 2560
12 | CCCCCCCCCCCc1ccc(O)c(OC)c1 | > 100000 | – | –
13 | CCCCCCCCC(=O)/C=C/c1ccc(O)c(OC)c1 | > 100000 | – | –
14 | CCCCCCCCC(=O)OCc1ccc(O)c(OC)c1 | 14200 | – | –
15 | CCCCCCCCNC(=O)/C=C\c1ccc(O)c(OC)c1 | 17900 | – | –
16 | CCCCCCCC/N=C(/NC#N)NCc1ccc(O)c(OC)c1 | 3280 | > 50 | 6350
17 | CCCCCCCC/N=C(/S)N(C)Cc1ccc(O)c(OC)c1 | > 100000 | – | –
18 | COc1cc(CNC(=O)CCCC/C=C/C(C)C)ccc1O [CAPSAICIN] | – | 15 | –
19 | CCCCCCCCC(=O)NCc1ccc(O)c(OC)c1 [NONIVAMIDE] | – | 5 | –

Second part, led by results:

Row | EC50 (Vanilloid receptor) [nM] | SMILES | ED50 (Mus musculus) [µmol/kg] | EC50 (Cavia porcellus) [nM]
20 | > 100000 | CCCCCCCCC(=O)NC(=S)NCc1ccc(O)c(OC)c1 | – | –
21 | > 100000 | CCCCCCCCN/C(NCc1ccc(O)c(OC)c1)=[S+]\C.[I-] | – | –
22 | 1160 | CCCCCCCCNC(=O)C(O)c1ccc(O)c(OC)c1 (stereo unspecified) | – | –
23 | > 100000 | CCCCCCCCN/C(=C\[N+](=O)[O-])NCc1ccc(O)c(OC)c1 | – | –
24 | 18300 | CCCCCCCCC(=O)NCCc1ccc(O)c(OC)c1 | – | –
25 | 360 | CCCCCCCCNC(=O)NCc1ccc(O)c(OC)c1 | – | –
26 | 3780 | CCCCCCCCCC(=O)Cc1ccc(O)c(OC)c1 | – | –
27 | > 100000 | CCCCCCCCC(=O)N(C)Cc1ccc(O)c(OC)c1 | – | –
28 | 2320 | CCCCCCCCNC(=O)CCc1ccc(O)c(OC)c1 | – | –
29 | 6290 | CCCCCCCCN(C)C(=O)Cc1ccc(O)c(OC)c1 | – | –
30 | > 100000 | CCCCCCCCNC(=O)c1ccc(O)c(OC)c1 | – | –
